Measured values from US7501430B2 (ArQule, Inc., priority 2006, dated 2009).

Molecular target: T1, mutant B-RAF (Homo sapiens, UniProt P15056, V600E)
T1 construct: purchased Upstate (Charlottesville, Va.)
Assay: RAF biochemical assay (MEK-1 phosphorylation, anti-phospho MEK1/2 detection)
Settings: for IC50: read-out: Mutant B-RAF IC50; for inhibition at 10 µM: read-out: Mutant B-RAF % inhibition
How it was run: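 Detection is by ELISA: after a 30 min room-temperature reaction, plate-captured GST-MEK-1 is probed with anti-phospho MEK1/2, then an AP-tagged secondary antibody with fluorescent Attophos read-out.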

T1 sequence (P15056 whole entry V600E): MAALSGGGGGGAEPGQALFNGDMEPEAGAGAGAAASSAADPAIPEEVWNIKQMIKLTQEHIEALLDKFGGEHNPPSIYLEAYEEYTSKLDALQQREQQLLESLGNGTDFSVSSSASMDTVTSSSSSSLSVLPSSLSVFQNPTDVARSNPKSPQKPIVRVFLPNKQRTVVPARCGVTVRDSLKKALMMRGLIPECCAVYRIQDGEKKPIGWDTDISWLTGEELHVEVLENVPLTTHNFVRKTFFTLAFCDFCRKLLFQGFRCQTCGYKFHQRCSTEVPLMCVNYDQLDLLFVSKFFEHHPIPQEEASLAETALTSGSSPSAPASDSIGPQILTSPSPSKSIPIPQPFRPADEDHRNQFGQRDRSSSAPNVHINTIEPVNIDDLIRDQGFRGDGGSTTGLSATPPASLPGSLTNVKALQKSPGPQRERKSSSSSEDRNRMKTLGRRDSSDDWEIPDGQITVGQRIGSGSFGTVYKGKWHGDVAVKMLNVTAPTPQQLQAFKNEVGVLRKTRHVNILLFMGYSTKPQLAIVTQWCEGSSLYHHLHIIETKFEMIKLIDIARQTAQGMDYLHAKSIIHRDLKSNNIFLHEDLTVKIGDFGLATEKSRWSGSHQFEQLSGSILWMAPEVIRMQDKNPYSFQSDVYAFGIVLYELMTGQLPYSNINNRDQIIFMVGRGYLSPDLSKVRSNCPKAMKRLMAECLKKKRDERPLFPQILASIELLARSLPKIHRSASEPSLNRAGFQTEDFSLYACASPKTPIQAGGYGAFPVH

Compound	IC50 [nM]	inhibition at 10 µM [%]
COc1cccc(-c2nc3sccn3c2-c2ccnc(NC3CCN(S(=O)(=O)c4ccc(Cl)cc4)CC3)n2)c1 [Example 263, N-{1-[(4-chlorophenyl)sulfonyl]piperidin-4-yl}-4-[6-(3-methoxyphenyl)imidazo[2,1-b][1,3]thiazol-5-yl]pyrimidin-2-amine]	> 5000	
O=S(=O)(c1ccc(Cl)cc1)N1CCC(Nc2nccc(-c3c(-c4ccc(O)cc4)nc4sccn34)n2)CC1 [Example 264, 4-{5-[2-({1-[(4-chlorophenyl)sulfonyl]piperidin-4-yl}amino)pyrimidin-4-yl]imidazo[2,1-b][1,3]thiazol-6-yl}phenol]		5
O=S(=O)(c1ccc(Cl)cc1)N1CCC(Nc2nccc(-c3c(-c4ccc(F)c(F)c4)nc4sccn34)n2)CC1 [Example 265, N-{1-[(4-chlorophenyl)sulfonyl]piperidin-4-yl}-4-[6-(3,4-difluorophenyl)imidazo[2,1-b][1,3]thiazol-5-yl]pyrimidin-2-amine]	> 3000	
O=S(=O)(c1ccc(F)cc1)N1CCC(Nc2nccc(-c3c(-c4cccc(O)c4)nc4sccn34)n2)CC1 [Example 266, 3-{5-[2-({1-[(4-fluorophenyl)sulfonyl]piperidin-4-yl}amino)pyrimidin-4-yl]imidazo[2,1-b][1,3]thiazol-6-yl}phenol]	29	
N#Cc1cccc(-c2nc3sccn3c2-c2ccnc(NC3CCN(S(=O)(=O)c4ccc(Cl)cc4)CC3)n2)c1 [Example 269, 3-{5-[2-({1-[(4-chlorophenyl)sulfonyl]piperidin-4-yl)amino)pyrimidin-4-yl]imidazo[2,1-b][1,3]thiazol-6-yl}benzonitrile]	1630	
COc1cccc(-c2nc3sccn3c2-c2ccnc(NC3CCN(S(=O)(=O)c4ccc(CCC(=O)O)cc4)CC3)n2)c1 [Example 270, 3-(4-{[4-({4-[6-(3-methoxyphenyl)imidazo[2,1-b][1,3]thiazol-5-yl]pyrimidin-2-yl}amino)piperidin-1-yl]sulfonyl}phenyl)propanoic acid]	316	
N#Cc1cccc(-c2nc3sccn3c2-c2ccnc(NC3CCNCC3)n2)c1 [Example 271, 3-{5-[2-(piperidin-4-ylamino)pyrimidin-4-yl]imidazo[2,1-b][1,3]thiazol-6-yl}benzonitrile]		58
COC(=O)CCc1ccc(S(=O)(=O)N2CCC(Nc3nccc(-c4c(-c5cccc(O)c5)nc5sccn45)n3)CC2)cc1 [Example 272, methyl 3-(4-{[4-({4-[6-(3-hydroxyphenyl)imidazo[2,1-b][1,3]thiazol-5-yl]pyrimidin-2-yl}amino)piperidin-1-yl]sulfonyl}phenyl)propanoate]	10	
O=C(O)CCc1ccc(S(=O)(=O)N2CCC(Nc3nccc(-c4c(-c5cccc(O)c5)nc5sccn45)n3)CC2)cc1 [Example 273, 3-(4-{[4-({4-[6-(3-hydroxyphenyl)imidazo[2,1-b][1,3]thiazol-5-yl]pyrimidin-2-yl}amino)piperidin-1-yl]sulfonyl}phenyl)propanoic acid]	10	
O=[N+]([O-])c1ccccc1-c1nc2sccn2c1-c1ccnc(NC2CCN(S(=O)(=O)c3ccc(Cl)cc3)CC2)n1 [Example 274, N-{1-((4-chlorophenyl)sulfonyl]piperidin-4-yl}-4-[6-(2-nitrophenyl)imidazo[2,1-b][1,3]thiazol-5-yl]pyrimidin-2-amine]	722	
Fc1ccc(-c2nc3sccn3c2-c2ccnc(N[C@H]3CCNC3)n2)cc1 [Example 275, 4-[6-(4-fluorophenyl)imidazo[2,1-b][1,3]thiazol-5-yl]-N-[(3S)-pyrrolidin-3-yl]pyrimidin-2-amine]		30
O=S(=O)(c1ccc(Cl)cc1)N1CC[C@H](Nc2nccc(-c3c(-c4ccc(F)cc4)nc4sccn34)n2)C1 [Example 276, N-{(3S)-1-[(4-chlorophenyl)sulfonyl]pyrrolidin-3-yl}-4-[6-(4-fluorophenyl)imidazo[2,1-b][1,3]thiazol-5-yl]pyrimidin-2-amine]		95
Fc1ccc(-c2nc3sccn3c2-c2ccnc(N[C@@H]3CCNC3)n2)cc1 [Example 277, 4-[6-(4-fluorophenyl)imidazo[2,1-b][1,3]thiazol-5-yl]-N-[(3R)-pyrrolidin-3-yl]pyrimidin-2-amine]	44	
O=S(=O)(c1ccc(Cl)cc1)N1CC[C@@H](Nc2nccc(-c3c(-c4ccc(F)cc4)nc4sccn34)n2)C1 [Example 278, N-{(3R)-1-[(4-chlorophenyl)sulfonyl]pyrro-lidin-3-yl}-4-[6-(4-fluorophenyl)imidazo[2,1-b][1,3]thiazol-5-yl]pyrimidin-2-amine]		10
COc1cccc(-c2nc3sccn3c2-c2ccnc(N[C@@H]3CCNC3)n2)c1 [Example 279, 4-[6-(3-methoxyphenyl)imidazo[2,1-b][1,3]thiazol-5-yl]-N-[(3R)-pyrrolidin-3-yl]pyrimidin-2-amine]		36
COc1cccc(-c2nc3sccn3c2-c2ccnc(N[C@@H]3CCN(S(=O)(=O)c4ccc(Cl)cc4)C3)n2)c1 [Example 280, N-{(3R)-1-[(4-chlorophenyl)sulfonyl]pyrro-lidin-3-yl}-4-[6-(3-methoxyphenyl)imidazo[2,1-b][1,3]thiazol-5-yl]pyrimidin-2-amine]		37

Compound	IC50 [nM]	inhibition at 10 µM [%]
COc1cccc(-c2nc3sccn3c2-c2ccnc(N[C@@H]3CCN(S(=O)(=O)c4ccc(C(=O)O)cc4)C3)n2)c1 [Example 281, 4-{[(3R)-3-({4-[6-(3-methoxyphenyl)imidazo[2,1-b][1,3]thiazol-5-yl]pyrimidin-2-yl}amino)pyrrolidin-1-yl]sulfonyl)benzoic acid]	> 3000	
O=C(O)c1ccc(S(=O)(=O)N2CC[C@@H](Nc3nccc(-c4c(-c5cccc(O)c5)nc5sccn45)n3)C2)cc1 [Example 282, 4-{[(3R)-3-({4-[6-(3-hydroxyphenyl)imidazo[2,1-b][1,3]thiazol-5-yl]pyrimidin-2-yl}amino)pyrrolidin-1-yl]sulfonyl}benzoic acid]	522	
O=S(=O)(c1ccc(Cl)cc1)N1CC[C@@H](Nc2nccc(-c3c(-c4cccc(O)c4)nc4sccn34)n2)C1 [Example 283, 3-{5-[2-({(3R)-1-[(4-chlorophenyl)sulfonyl]pyrro-lidin-3-yl}amino)pyrimidin-4-yl]imidazo[2,1-b][1,3]thiazol-6-yl}phenol]	1600	
N#Cc1cccc(-c2nc3sccn3c2-c2ccnc(N[C@@H]3CCNC3)n2)c1 [Example 284, 3-(5-{2-[(3R)-pyrrolidin-3-ylamino]pyrimidin-4-yl}imidazo[2,1-b][1,3]thiazol-6-yl)benzonitrile]		61
N#Cc1cccc(-c2nc3sccn3c2-c2ccnc(N[C@@H]3CCN(S(=O)(=O)c4ccc(Cl)cc4)C3)n2)c1 [Example 285, 3-{5-[2-({(3R)-1-[(4-chlorophenyl)sulfonyl]pyrrolidin-3-yl}amino)pyrimidin-4-yl]imidazo[2,1-b][1,3]thiazol-6-yl}benzonitrile]		35
Fc1ccc(-c2nc3sccn3c2-c2ccnc(NC3CNC3)n2)cc1 [Example 287, N-azetidin-3-yl-4-[6-(4-fluorophenyl)imidazo[2,1-b][1,3]thiazol-5-yl]pyrimidin-2-amine]	2490	
O=S(=O)(c1ccc(Cl)cc1)N1CCC[C@@H](Nc2nccc(-c3c(-c4cccc(O)c4)nc4sccn34)n2)C1 [Example 288, 3-{5-[2-({(3R)-1-[(4-chlorophenyl)sulfonyl]piperidin-3-yl}amino)pyrimidin-4-yl]imidazo[2,1-b][1,3]thiazol-6-yl}phenol]	2	
CC(=O)N1CCC(Nc2nccc(-c3c(-c4ccc(F)cc4)nc4sccn34)n2)CC1 [Example 291, N-(1-acetylpiperidin-4-yl)-4-[6-(4-fluorophenyl)imidazo[2,1-b][1,3]thiazol-5-yl]pyrimidin-2-amine]		41
Fc1ccc(CN2CCC(Nc3nccc(-c4c(-c5ccc(F)cc5)nc5sccn45)n3)CC2)cc1 [Example 293, N-[1-(4-fluorobenzyl)piperidin-4-yl]-4-[6-(4-fluorophenyl)imidazo[2,1-b][1,3]thiazol-5-yl]pyrimidin-2-amine]		14
CCNC(=O)N1CCC(Nc2nccc(-c3c(-c4ccc(F)cc4)nc4sccn34)n2)CC1 [Example 294, N-ethyl-4-({4-[6-(4-fluorophenyl)imidazo[2,1-b][1,3]thiazol-5-yl]pyrimidin-2-yl}amino)piperidine-1-carboxamide]	41	
O=C(Nc1ccc(F)cc1)N1CCC(Nc2nccc(-c3c(-c4ccc(F)cc4)nc4sccn34)n2)CC1 [Example 295, N-(4-fluorophenyl)-4-({4-[6-(4-fluorophenyl)imidazo[2,1-b][1,3]thiazol-5-yl]pyrimidin-2-yl}amino)piperidine-1-carboxamide]		49
CS(=O)(=O)N1CCC(Nc2nccc(-c3c(-c4ccc(F)cc4)nc4occn34)n2)CC1 [Example 299, 4-[6-(4-fluorophenyl)imidazo[2,1-b][1,3]oxazol-5-yl]-N-[1-(methylsulfonyl)piperidin-4-yl]pyrimidin-2-amine]		55
Fc1ccc(-c2nc3occn3c2-c2ccnc(NC3CCNCC3)n2)c(F)c1 [Example 300, 4-[6-(2,4-difluorophenyl)imidazo[2,1-b][1,3]oxazol-5-yl]-N-piperidin-4-ylpyrimidin-2-amine]		65
Fc1ccc(-c2nc3occn3c2-c2ccnc(NC3CCNCC3)n2)c(Cl)c1 [Example 301, 4-[6-(2-chloro-4-fluorophenyl)imidazo[2,1-b][1,3]oxazol-5-yl]-N-piperidin-4-ylpyrimidin-2-amine]		39
CC(=O)N1CCC(Nc2nccc(-c3c(-c4ccccc4Cl)nc4occn34)n2)CC1 [Example 302, N-(1-acetylpiperidin-4-yl)-4-[6-(2-chlorophenyl)imidazo[2,1-b][1,3]oxazol-5-yl]pyrimidin-2-amine]		39
CC(=O)N1CCC(Nc2nccc(-c3c(-c4ccccc4C)nc4occn34)n2)CC1 [Example 303, N-(1-acetylpiperidin-4-yl)-4-[6-(2-methylphenyl)imidazo[2,1-b][1,3]oxazol-5-yl]pyrimidin-2-amine]		42
